# Values of other authors in patent publication US20080131525A1, “Therapeutic Nutrient Compositions Or Combinations And Methods Of Their Use” (priority 2004, published 2008).
# Residues, ends and D or L forms follow the SMILES beside them.
# Conditions: human, in vivo
structure (smiles),measurement,setting,value
"C[C@H](N)C(=O)N[C@@H](CCC(N)=O)C(=O)O [ala-gln, N(2)-L-alanyl-L-glutamine] (H-Ala-Gln-OH)",calculated distribution volume,,equivalent to that of the extracellular compartment
same,dipeptide in plasma after the end of infusion,,no longer detectable in plasma
same,dipeptide in urine,,no ala-gln was detected in urine
same,half-life,,2.4 to 3.8 min
same,plasma clearance rate,,1.92 L/min
same,dipeptide in plasma over the infusion period,24 mg/kg,only trace quantities
same,hydrolysis after intravenous infusion,iv,rapidly hydrolysed
same,tolerability,iv,well tolerated
